Measured values: EP0605261B1, “Use of a flavone derivative as taste modifier and a method of modifying taste” (SAN-EI GEN F.F.I., INC., priority 1992, dated 1994)

Key:
[1] = Sensory test (limiting method): enhancing the sourness of acid sugar solution; type: in vivo; set-up: key: (equivalent citric acid content / citric acid content with flavone) × 100; conditions: citric acid 1.000 (g), flavone derivative (I) 0.00001 (g), 8 panellers
Protocol: Compounds 1 to 11 of the flavone derivative (I) were used as a taste modifier to prepare acid sugar solution having compositions as follows:
As a control, 21 types of acid sugar solutions are used. In the control, the flavone derivative (I) is removed from the above composition and the content of citric acid is varied from 1.000 g to 1.500 g by 0.025 g.
Sensory tests were carried out by 8 trained panellers in accordance with a limiting method described in the Hand Book of Sensory evaluation, edited by Research Committee of sensory evaluation, Union of Japanese Scientists and Engineers, p.398 (1973) in use of acid sugar solutions containing respective flavone derivatives (I) and another acid sugar solutions having a various content of citric acid.
As for the content of citric acid, two types sensory tests were conducted, one was an ascending system (testing from solution with low concentration) and another was a descending system (testing from solution with high concentration).
The sensory evaluation was made by a value of enhancing the sourness. The value of enhancing the sourness was calculated by the following formula based on the content of citric acid in acid sugar solutions with varied concentration of citric acid, which has an equivalent stimulation with an acid sugar solution containing the flavone derivative (I) Value of enhancing the sourness = (content of citric acid in acid sugar solution sensed as an equivalent stimulation/content of citric acid in acid sugar solution containing the flavone derivative (I)) x 100 [formula]

[2] = Sensory test: savor (hard candy); type: in vivo; conditions: hard candy with Aspartame; 0.0001 w/w%; 10 panellers
Protocol: Compound 10 of the flavone derivative (I) was used as a taste modifier, and 22.5 w/w% thick malt syrup of reducing maltose, 22.5 w/w% reducing starch saccharide and 0.08 w/w% of Aspartame were used as sweetening agents. In accordance with a general method, hard candy containing 0.0001 w/w% of the flavone derivative (I) and flavone derivative (I) free hard candy were prepared. Sensory tests for the savor were conducted by 10 panellers comprised of 6 males and 4 females at the age from 20 to 40.

Structure (SMILES): COc1ccc(-c2cc(=O)c3c(O)c(OC)c(OC)c(OC)c3o2)cc1OC [Compound 10, 5-hydroxy-3',4',6,7,8-pentamethoxyflavone]
- Value of enhancing the sourness Ascending system ([1]; ascending system (from low concentration)): 120
- Value of enhancing the sourness Descending system ([1]; descending system (from high concentration)): 123
- the savor, as sensed by all the panellers [2]: better than that of the control
